Results as given in patent publication US12352767B2, “Method of treating cognitive decline associated with neurological diseases based on a decrease in FLT4 expression or activity” (University of Virginia Patent Foundation, priority 2018, dated 2025).
“Also recorded” adds a separate entry of the source.

Key:
[1] = test system: intracranial vasculature, blood-brain barrier, brain ventricles; details: mouse, in vivo
Method: All MRI acquisitions were performed at the University of Virginia Molecular Imaging Core facilities in a 7T Clinscan system (Bruker, Ettlingen, Germany) equipped with a 30 mm diameter cylindrical RF Coil. For analysis of mouse intracranial vascular structure, mice were placed in the 7T Clinscan system under light anaesthesia with isoflurane (1-1.25% in oxygen). Structural imaging data of intracranial arteries (magnetic resonance angiography or MRA) was acquired with a high-resolution 3D isotropic Spiral Cine Phase Contrast (SCPC) technique: repetition time (TR)=15 ms, echo time (TE)=0.63 ms, field of view (FOV)=25×25 mm, slice thickness=0.01 mm, number of sagittal slices=160, number of averages per phase-encode step (NEX)=1 and flip angle (FA)=20°. Total imaging time was of about 15 min per mouse. Structural imaging data of intracranial veins (magnetic resonance venography or MRV) was acquired with a high-resolution 3D isotropic SCPC technique with a saturation band positioned caudal to the slices, in order to saturate the arterial signal: TR=17 ms, TE=4.54 ms, FOV=17×26 mm, slice thickness=0.3 mm, number of sagittal slices=160, NEX=2 and FA=90°. Total imaging time was of about 13 min per mouse. Vascular volume and diameters were quantified using semi-automatic segmentation tools provided in the OsiriX software. For analysis of mouse brain ventricular volume, mice were placed in the 7T Clinscan system under light anaesthesia with isoflurane and structural imaging data were acquired with a high-resolution 3D isotropic T2-weighted SPACE technique with the following parameters: TR=3000 ms, TE=139 ms, FOV=26×20.5 mm, slice thickness=0.13 mm, number of slices=160 and NEX=3, requiring a total acquisition time of about 16 min per mouse. Ventricular volumes were quantified using semi-automatic segmentation tools provided in the OsiriX software.
Initially, a pre-contrast image was acquired after placing the mice in the 7T Clinscan system under light anaesthesia with isoflurane. Gadobenate dimeglumine (gadolinium or Gd, MultiHance, Bracco Diagnostics, Princeton, New Jersey) at 0.3 mmol/kg was then injected intravenously (i.v.), through a catheter inserted in the tail vein. To assess the rate of influx of a CSF tracer into the brain, mice were anaesthetized by i.p. injection of ketamine and xylazine in saline and an i.c.m. injection of 5 μL of Gd at a concentration of 25 mM in saline was performed. […] The mice were placed in the MRI apparatus and maintained under light anaesthesia with isoflurane. For MRI acquisition, maximum gradient strength of the system was 500 mT/m and the peak slew rate achievable was 6667 mT/m/ms. After i.v. injection of Gd or 10 min after injecting gadolinium into the CSF, a series of post-contrast T1-weighted images were taken through the head with the following parameters: TR=500 ms, TE=11 ms, FOV=20×20 mm with a 192×192 matrix (104 μm×104 μm resolution), slice thickness=0.7 mm, number of slices=22 and NEX=2. For i.v. Gd injection 5 post-contrast images were acquired requiring about 16 min per mouse (each sequence taken every 194 s). For brain influx of Gd injected into the CSF, the total acquisition time was of about 52 min per mouse (194 s×16 sequences per mouse), meaning that T1 images were acquired for approximately 1 hour post-injection.

J20 mice = test: Amyloid pathology in meninges and hippocampus of J20 mice (Aβ immunostaining); assay type: in vivo
Method: Male or female wild-type mice (C57BL/6J background) were either bred in-house, purchased from the Jackson Laboratory (Bar Harbor, Maine, USA) or provided by the National Institutes of Health/National Institute on Aging (Bethesda, MD, USA). All mice were maintained in the animal facility for habituation for at least 1 week prior to the start of the manipulation/experimentation. C57BL/6J wild-type mice were tested at 2-3, 12-14 and 20-24 months of age. Male hemizygous B6.Cg-Tg(PDGFB-APPSwInd)20Lms/2Mmjax (J20, JAX stock #006293) and B6.Cg-Tg(APPSwFILon,PSEN1*M146L*L286V)6799Vas/Mmjax (5×FAD, JAX stock #008730) were purchased from the Jackson Laboratory and bred in-house on a C57BL/6J background. […] 5×FAD hemizygous mice overexpress the transgene constructs under neural-specific elements of the mouse thymocyte differentiation antigen 1 promoter and present accelerated accumulation of Aβ42 and deposition of amyloid and gliosis in the brain starting at 2 months of age, with dramatic amyloid plaque load without major behavioral deficits at 5 months^45. In-house bred male transgene carriers and non-carrier (WT) littermates were used at different ages that are indicated throughout the manuscript. […]

mice [2] = test: Novel location recognition test; assay type: in vivo; details: Visudyne/photoconversion twice, adult mice
Method: Novel location recognition test was performed following a published protocol^52 with modifications. The experimental apparatus used in this study was the same square box made of opaque white plastic (35 cm×35 cm) used in the Open field test. The mice were first habituated to the apparatus for 15 min. Two different plastic objects (one red and the other blue and with different shapes) were then positioned in a defined spatial orientation, namely on each corner of the arena and 5 cm away from each adjacent arena wall. Mice were then placed in the arena (by a blinded experimenter), facing the wall farther away from the objects and allowed to explore the arena and objects for 10 min. Twenty-four hours later, the mice were placed in the same box with the same two objects, but one of them had switched location and was placed in a new quadrant, obliquely to the familiar object (novel location test). The time spent exploring the objects in the familiar and novel locations was also measured for 10 min. Exploration of an object was assumed when the mouse approached an object and touched it with its vibrissae, snout or forepaws and was measured using a video tracking software (TopScan, CleverSys, Inc.). The object location preference (% of time with object) was calculated as the exploration time of the objects in the familiar or in the novel location/total exploration time.

mice [3] = test: Open field test; assay type: in vivo; details: Visudyne/photoconversion twice, two-week interval, adult mice
Method: Open field was performed following a published protocol^51 with minor modifications. Mice were carried to the behavior room to habituate at least 30 min before starting the test. Mice were then placed into the open field arena (made of opaque white plastic material, 35 cm×35 cm) by a blinded experimenter and allowed to explore it for 15 min. Total distance (cm) and % time spent in the center (22 cm×22 cm) were quantified using video tracking software (TopScan, CleverSys, Inc.).

mice [4] = test: Morris water maze test; assay type: in vivo; details: Visudyne/photoconversion twice, adult mice
Method: The Morris water maze test was performed as described before^53, but with modifications. Mice were transported to the behavior room to habituate at least 30 min before starting the test. The MWM test consisted of 4 days of acquisition, 1 day of probe trial and 2 days of reversal. In the acquisition, mice performed four trials per day, for 4 consecutive days, to find a hidden 10-cm diameter platform located 1 cm below the water surface in a pool 1 m in diameter. Tap water was made opaque with nontoxic tempera white paint and the water temperature was kept at 23±1° C. A dim light source was placed within the testing room and only distal visual cues were available above each quadrant of the swimming pool to aid in the spatial navigation and location of the submerged platform. The latency to platform, e.g., the time required by the mouse to find and climb onto the platform, was recorded for up to 60 s. Each mouse was allowed to remain on the platform for 20 s and was then moved from the maze to its home cage. […] During the acquisition, probe and reversal, data were recorded using the EthoVision automated tracking system (Noldus Information Technology). The mean latency (in s) of the four trials was calculated for each day of test. The % of time in the platform quadrant was calculated for the probe trial. […] The mean % of allocentric navigation of four trials was calculated for each day.

brain parenchyma = test: Brain perfusion/influx by CSF tracer OVA-A647 (brain sections); assay type: in vivo, mice; details: 7 days after Visudyne/photoconversion, vs control groups
Method: (§1) Mice were anaesthetized by intraperitoneal (i.p.) injection of a mixed solution of ketamine (100 mg/Kg) and xylazine (10 mg/Kg) in saline. The skin of the neck was shaved and cleaned with iodine and 70% ethanol, ophthalmic solution placed on the eyes to prevent drying and the mouse's head was secured in a stereotaxic frame. After making a skin incision, the muscle layers were retracted and the cisterna magna exposed. Using a Hamilton syringe (coupled to a 33-gauge needle), the volume of the desired tracer solution was injected into the CSF-filled cisterna magna compartment. For brain CSF influx and lymphatic drainage experiments, 2 or 5 μL of Alexa Fluor® 594 or 647 conjugated OVA (Thermo Fisher Scientific), at 0.5 mg/mL in artificial CSF (#597316, Harvard Apparatus U.K.), were injected at a rate of 2.5 μL/min. After injecting, the syringe was left in place for additional 2 min to prevent back-flow of CSF.

[5] = test system: meningeal lymphatic drainage; test: Drainage of CSF tracer (OVA-A647) into deep cervical lymph nodes; assay type: in vivo, mice; details: 7 days after Visudyne/photoconversion, 2 h after i.c.m. tracer, vs control groups
Method: as §1

Question: How did the arterial vessel volume [1] turn out when verteporfin [Visudyne] was run?
Answer: no significant changes between groups

Question: What about the basilar artery diameter [1] of the same substance?
Answer: no significant changes between groups

Question: And the “structure of major intracranial veins and arteries” value [1]?
Answer: not altered

Question: What about the “superior sagittal sinus (SSS) diameter” value [1] of the same substance?
Answer: no significant changes between groups

Question: And the venous vessel volume [1]?
Answer: no significant changes between groups

Question: And the “Aβ aggregates / amyloid deposition in the meninges” value (J20 mice; Visudyne/photoconversion every 3 weeks for 3 months)?
Answer: Aβ aggregates had formed in the meninges; also recorded: marked amyloid deposition

Question: And the “Aβ plaque load (coverage) in the hippocampi” value (J20 mice; Visudyne/photoconversion for 3 months vs vehicle)?
Answer: significantly increased; also recorded: statistically significant increase in coverage

Question: And the “NLR novel location task (time with object in novel location)” value (mice [2])?
Answer: No differences between the groups; also recorded: identical

Question: What about the NLR training performance (mice [2]) of the same substance?
Answer: identical

Question: And the “open field time in center of the arena” value (mice [3])?
Answer: No differences between the groups

Question: What about the “open field total distance” value (mice [3]) of the same substance?
Answer: No differences between the groups

Question: And the MWM spatial learning (mice [4])?
Answer: significant deficits in spatial learning

Question: What about the “brain perfusion by CSF tracer (OVA-A647 area fraction in brain sections)” value (brain parenchyma) of the same substance?
Answer: significantly lower; also recorded: significant decrease

Question: And the “OVA-A647 drainage from CSF into dCLNs (area fraction)” value [5]?
Answer: significant reduction; also recorded: significantly less amount of tracer
